Legend:
[1] = Intranasal pharmacokinetic study in rats; settings: rat, equimolar to 2.0 mg/kg hydromorphone
Description: The intranasal studies were performed at doses equimolar to 2.0 mg/kg of hydromorphone.

[2] = Intravenous pharmacokinetic study in rats; settings: rat, 0.20 mg/kg
[3] = Oral pharmacokinetic study in rats (released hydromorphone in plasma); settings: rat; for AUC of hydromorphone released from the conjugate / Cmax of hydromorphone released from the conjugate / Tmax of hydromorphone released from the conjugate: oral solution, dose equimolar to 2.0 mg/kg hydromorphone, plasma
GI transit = assay: Validated rat gastrointestinal (GI) motility study; settings: oral, equimolar dose, result in words
[4] = Tamper resistance study: extraction methods, hydromorphone release by HPLC; settings: for amount of hydromorphone released from 3,6-di-aspirin-HM: %-AUC by HPLC
Source text: Certain prodrug conjugates of the present technology were exposed to various commonly applied “extraction methods” to test for hydrolysis and/or decomposition of the prodrug.

[5] = oral, equimolar to 2.0 mg/kg hydromorphone, result in words

## CC(=O)Oc1ccccc1C(=O)OC1=CC[C@H]2[C@H]3Cc4ccc(OC(=O)c5ccccc5OC(C)=O)c5c4[C@@]2(CCN3C)[C@H]1O5 [3,6-di-Aspirin-HM, 3,6-di-aspirin-hydromorphone]
[1]
  AUC as % of unconjugated hydromorphone: 17%
  Cmax as % of unconjugated hydromorphone: 20%
[1]; result in words
  plasma concentrations of hydromorphone after intranasal administration compared to the parent drug: significantly reduced
[2]
  AUC as % of unconjugated hydromorphone: 6%
  Cmax as % of unconjugated hydromorphone: 3%
[2]; result in words
  plasma concentrations of hydromorphone after intravenous administration compared to unconjugated hydromorphone: significantly lower
[3]
  AUC of hydromorphone released from the conjugate: 82.4 ng·h/mL
  Cmax of hydromorphone released from the conjugate: 36.5 ng/mL
  Tmax of hydromorphone released from the conjugate: 15 min
[3]; [5]
  hydromorphone plasma concentrations compared to unconjugated hydromorphone: comparable
GI transit
  reduction of GI transit compared to hydromorphone hydrochloride: reduces GI transit to a lesser extent than hydromorphone hydrochloride
[4]; 1N HCl, ambient temperature, 30 min.
  amount of hydromorphone released from 3,6-di-aspirin-HM: 0%
[4]; 1N HCl, ambient temperature, 60 min.
  amount of hydromorphone released from 3,6-di-aspirin-HM: 0%
[4]; 1N NaOH, ambient temperature, 30 min.
  amount of hydromorphone released from 3,6-di-aspirin-HM: 1%
[4]; 1N NaOH, ambient temperature, 60 min.
  amount of hydromorphone released from 3,6-di-aspirin-HM: 1%
[4]; 4N NaOH, ambient temperature, 30 min.
  amount of hydromorphone released from 3,6-di-aspirin-HM: 1%
[4]; 4N NaOH, ambient temperature, 60 min.
  amount of hydromorphone released from 3,6-di-aspirin-HM: 6%
[4]; 5% Acetic acid, ambient temperature, 30 min.
  amount of hydromorphone released from 3,6-di-aspirin-HM: 0%
[4]; 5% Acetic acid, ambient temperature, 60 min.
  amount of hydromorphone released from 3,6-di-aspirin-HM: 0%
[4]; Glacial acetic acid, ambient temperature, 30 min.
  amount of hydromorphone released from 3,6-di-aspirin-HM: 0%
[4]; Glacial acetic acid, ambient temperature, 60 min.
  amount of hydromorphone released from 3,6-di-aspirin-HM: 0%
[4]; Sat. NaHCO3, ambient temperature, 30 min.
  amount of hydromorphone released from 3,6-di-aspirin-HM: 0%
[4]; Sat. NaHCO3, ambient temperature, 60 min.
  amount of hydromorphone released from 3,6-di-aspirin-HM: 0%
[4]; Water, ambient temperature, 30 min.
  amount of hydromorphone released from 3,6-di-aspirin-HM: 0%
[4]; Water, ambient temperature, 60 min.
  amount of hydromorphone released from 3,6-di-aspirin-HM: 0%
[4]; result in words
  chemical stability under commonly applied "extraction methods": chemically stable
  outcome of solvent extraction from formulation: only yielded inactive prodrug

## CN1CCC23c4c5ccc(OC(=O)c6ccccc6)c4OC2C(OC(=O)c2ccccc2)=CCC3C1C5 (stereo not drawn) [3,6-di-Benzoate-HM, 3,6-di-benzoate-hydromorphone]
[3]
  AUC of hydromorphone released from the conjugate: 30.1 ng·h/mL
  Cmax of hydromorphone released from the conjugate: 11.3 ng/mL
  Tmax of hydromorphone released from the conjugate: 15 min
[3]; [5]
  hydromorphone plasma concentrations compared to unconjugated hydromorphone: lower at all time points

## CN1CCC23c4c5ccc(OC(=O)c6ccccc6)c4OC2C(=O)CCC3C1C5 (stereo not drawn) [3-Benzoate-HM, 3-benzoate-hydromorphone]
[3]
  AUC of hydromorphone released from the conjugate: 41.2 ng·h/mL
  Cmax of hydromorphone released from the conjugate: 19.8 ng/mL
  Tmax of hydromorphone released from the conjugate: 30 min
[3]; [5]
  hydromorphone plasma concentrations compared to unconjugated hydromorphone: lower at all time points

## CN1CCC23c4c5ccc(OC(=O)C=Cc6ccccc6)c4OC2C(=O)CCC3C1C5 (stereo not drawn) [3-Cinnamate-HM, 3-cinnamate-hydromorphone]
[3]
  AUC of hydromorphone released from the conjugate: 25.3 ng·h/mL
  Cmax of hydromorphone released from the conjugate: 28.3 ng/mL
  Tmax of hydromorphone released from the conjugate: 15 min
[3]; [5]
  hydromorphone plasma concentrations compared to unconjugated hydromorphone: lower at all time points

## CN1CC[C@]23c4c5ccc(OC(=O)c6ccccc6Nc6ccccc6)c4OC2C(=O)CC[C@H]3[C@H]1C5 (stereo partly drawn) [3-Fenamate-HM, 3-fenamate-hydromorphone]
[3]
  AUC of hydromorphone released from the conjugate: 44.6 ng·h/mL
  Cmax of hydromorphone released from the conjugate: 30.6 ng/mL
  Tmax of hydromorphone released from the conjugate: 15 min
[3]; [5]
  hydromorphone plasma concentrations compared to unconjugated hydromorphone: elevated for the first hour after oral administration and then decreased quickly

## CN1CCC23c4c5ccc(OC(=O)c6ccncc6)c4OC2C(=O)CCC3C1C5 (stereo not drawn) [3-Isoniacin-HM, 3-isoniacin-hydromorphone]
[3]
  AUC of hydromorphone released from the conjugate: 25.1 ng·h/mL
  Cmax of hydromorphone released from the conjugate: 18.5 ng/mL
  Tmax of hydromorphone released from the conjugate: 15 min
[3]; [5]
  Cmax value of released hydromorphone compared to unconjugated hydromorphone: lower

## CN1CCC23c4c5ccc(OC(=O)c6ccc(O)cc6)c4OC2C(=O)CCC3C1C5 (stereo not drawn) [3-p-Salicylic-HM, 3-p-salicylic-hydromorphone]
[3]
  AUC of hydromorphone released from the conjugate: 31.4 ng·h/mL
  Cmax of hydromorphone released from the conjugate: 17.2 ng/mL
  Tmax of hydromorphone released from the conjugate: 15 min
[3]; [5]
  hydromorphone plasma concentrations compared to unconjugated hydromorphone: lower at all time points

## COc1ccc2cc(C(C)C(=O)OC3=CCC4C5Cc6ccc(O)c7c6C4(CCN5C)C3O7)ccc2c1 (stereo not drawn) [6-Naproxen-HM, 6-naproxen-hydromorphone]
[3]
  AUC of hydromorphone released from the conjugate: 31.6 ng·h/mL
  Cmax of hydromorphone released from the conjugate: 19.1 ng/mL
  Tmax of hydromorphone released from the conjugate: 15 min
[3]; [5]
  overall exposure after oral administration compared to the parent drug: reduced significantly

## CN1CCC23c4c5ccc(O)c4OC2C(OC(=O)c2ccccc2O)=CCC3C1C5 (stereo not drawn) [6-o-Salicylate-HM, 6-o-salicylate-hydromorphone]
[3]
  AUC of hydromorphone released from the conjugate: 33.3 ng·h/mL
  Cmax of hydromorphone released from the conjugate: 14.1 ng/mL
  Tmax of hydromorphone released from the conjugate: 15 min
[3]; [5]
  Cmax value of released hydromorphone compared to unconjugated hydromorphone: lower

## CC(=O)Oc1ccccc1C(=O)Oc1ccc2c3c1OC1C(=O)CCC4C(C2)N(C)CCC314 (stereo not drawn) [Conjugate 3-Aspirin-HM, 3-aspirin-hydromorphone]
[3]
  AUC of hydromorphone released from the conjugate: 55.9 ng·h/mL
  Cmax of hydromorphone released from the conjugate: 44.3 ng/mL
  Tmax of hydromorphone released from the conjugate: 15 min
[3]; [5]
  hydromorphone plasma concentrations compared to unconjugated hydromorphone: comparable

Source: patent publication US9849185B2, “Benzoic acid, benzoic acid derivatives and heteroaryl carboxylic acid conjugates of hydromorphone, prodrugs, methods of making and use thereof” (priority 2011, dated 2017)
